Test results: patent US8609870B2, “Treating various disorders using TrkB agonists” (Emory University, priority 2008, dated 2013)

How the values were obtained:
hippocampal neurons [1] = test: Glutamate-triggered apoptosis in hippocampal neurons (MR(DEVD)2 / condensed nuclei); format: cell-based; settings: 0.5 μM preincubated 30 min, then 50 μM glutamate 16 h
Procedure: To create and test reporter cell lines. In order to identify small molecules that mimic BDNF and activate TrkB, TrkB stably transfected murine cell lines are created. The T48 and T62 cell lines are created by transfecting basal forebrain SN56 cells, which express negligible TrkB, with a TrkB expression construct. To test expression of TrkB, the cells are treated with BDNF, which is predicted to result in strong phosphorylation of Trk-490 and Akt activation in comparison to the TrkA NTR stably expressing T17 cell line indicating expression of TrkB. To test resistance to apoptosis, the SN56 cells and the T48 cell line are either untreated or treated with BDNF, and then are subjected to an apoptotic assay. The apoptotic assay involves treating the cells with 0.75 μM Staurosporine for 9 hours, and 1 hour before completing the experiment, the cells are treated with 10 μM MR (DEVD)2. The cells then are fixed with 4% paraformaldehyde for 15 minutes, washed with phosphate buffered saline (PBS), and incubated with Hoechst 33342 for 10 minutes. Cover slides are washed with PBS, mounted, and then the cells are examined using a fluorescent microscope to see which cells turn red upon caspase cleavage.
To compare the apoptosis inhibitory activity of identified active compounds, the compounds are preincubated with SN56 and T48 cells, and subsequently are subjected to the fluorescent apoptotic assay as described above. To examine whether these identified active compounds promote neuronal survival, hippocampal neurons are prepared and the cultures are pretreated with the identified active compounds for 30 minutes, followed by treatment with 50 μM glutamate for 16 hours.
Using a cell-based screen as described above in Example 1 (based on the anti-apoptotic action of TrkB signaling) and the chemical library from the Spectrum Collection (described above), 66 positive hits were generated, four of which were gedunin derivatives. […] In this assay, neurons with both cleaved caspase (MR (DEVD)2 red cells) and condensed nuclei (DAPI staining) were counted as apoptotic cells. […]

[2] = biological target: TrkB extra-cellular domain (ECD) (Homo sapiens, UniProt Q16620); test: [3H]-deoxygedunin ligand binding assay, TrkB ECD (Scatchard plot)
Procedure: Purified TrkB ECD or ICD proteins (10 μg/each) were incubated with different [^3H-deoxygedunin] in 1 ml binding buffer (0.05 M Na/K phosphate buffer (pH 7.1), 200 mM NaCl) (1 nM [^3H]deoxygedunin˜82300 cpm) at 4° C. for 10 minutes. After incubation, the reaction mixture was loaded on filter paper and washed with 3×5 ml Tris buffer (100 mM Tris, pH 7.1). The dried filter paper was put into a small vial and subjected to liquid scintillation counter analysis. The value of the dissociation constant and the number of sites were obtained from Scatchard plots by using the equation r/[L]free=n/Kd−r/Kd, where r is the ratio of the concentration of bound ligand to the total protein concentration and n is the number of binding sites.
To determine whether an identified active compound physically and directly binds to the TrkB receptor, in vitro binding assays can be conducted with purified TrkB extracellular domain (ECD) and intracellular domain (ICD) recombinant proteins. Purified TrkB ECD and ICD (10 μg of each) are incubated with different concentrations of ^3H-labeled identified active compound in 1 ml of binding buffer (0.05M Na/K phosphate buffer, pH 7.1, 200 mM NaCl) at 4° C. for 10 minutes. After the incubation, the reaction mixture is loaded on filter paper. The mixture is washed three times with Tris buffer (100 mM Tris, pH 7.1), and the dried filter paper is put into a small vial and subjected to liquid scintillation counter analysis. […] The value of the dissociate constant and the number of sites will then be obtained from Scatchard plots using the equation r/[L]free=n/Kd−r/Kd, where r is the ratio of the concentration of bound ligand to the total protein concentration and n is the number of binding sites.
To determine whether deoxygedunin binds the intra-cellular domain (ICD) or extra-cellular domain (ECD) of the TrkB receptor, ligand binding assays with [^3H]-deoxygedunin were performed. […] The coprecipitated HA-TrkB was also prominently tyrosine phosphorylated (see FIG. 14, 3rd panel).

hippocampal neurons [3] = test: Oxygen-glucose deprivation (OGD) apoptosis in hippocampal neurons; format: cell-based
TrkB = biological target: T1, TrkB (Mus musculus, UniProt P15209); test: TrkB activation in BDNF cortex conditional knockout mice; format: in vivo; settings: 5 mg/kg i.p., sacrificed at 4 hours; wild-type and BDNF −/− mice
T1 construct: Brain lysates were prepared and analyzed by immunoblotting; from tissue; host or cells: mouse brain
Description: The Cortex-Specific Cre mouse line was previously described as “transgenic line C” (Chhatwal et al., Gene Ther. 14, 575-583 (2007)). Briefly, coding sequence for Cre-recombinase (Cre-IRES-DsRed2) was placed downstream of a 3 kb cholecystokinin (CCK) promoter, linearized, purified, and microinjected into the pronuclei of one-cell C57/BL6 embryos, which were then implanted into pseudopregnant C57/BL6 females. Following verification of gene expression in the different transgenic lines (Chhatwal et al., Nat. Neurosci. 9, 870-872 (2006)), the cortex-specific “line C” was crossed to a floxed-stop lacZ reporter mouse line (Soriano, Nat. Genet., 21, 70-71 (1999)) as well as the floxed BDNF mouse line (Rios et al., Mol. Endocrinol., 15, 1748-1757 (2001)). Region specific Cre gene expression and BDNF deletion were confirmed with in situ hybridization, x-gal staining for β-galactosidase expression, and Western blot for BDNF protein levels.
To examine whether deoxygedunin activating TrkB involved endogenous BDNF, BDNF conditional knockout mice with BDNF gene deletion limited to cortex (thus allowing normal development) were used. Deoxygedunin (5 mg/kg) was intraperitoneally injected into the BDNF cortex conditional knockout mice and the mice were sacrificed at 4 hours. […]

Chain of TrkB extra-cellular domain (ECD) (Q16620 32-430 limits assumed): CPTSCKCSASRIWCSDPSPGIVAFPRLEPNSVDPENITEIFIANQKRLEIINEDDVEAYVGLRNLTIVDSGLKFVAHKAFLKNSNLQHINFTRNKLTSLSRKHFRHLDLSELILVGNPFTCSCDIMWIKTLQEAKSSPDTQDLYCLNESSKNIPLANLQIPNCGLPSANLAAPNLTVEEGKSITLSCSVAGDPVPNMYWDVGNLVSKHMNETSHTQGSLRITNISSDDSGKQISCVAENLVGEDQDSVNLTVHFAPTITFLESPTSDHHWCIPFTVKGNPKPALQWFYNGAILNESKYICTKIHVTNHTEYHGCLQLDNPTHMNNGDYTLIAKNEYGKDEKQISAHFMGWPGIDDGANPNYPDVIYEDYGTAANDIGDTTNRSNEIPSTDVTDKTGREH
T1 sequence (P15209 32-821): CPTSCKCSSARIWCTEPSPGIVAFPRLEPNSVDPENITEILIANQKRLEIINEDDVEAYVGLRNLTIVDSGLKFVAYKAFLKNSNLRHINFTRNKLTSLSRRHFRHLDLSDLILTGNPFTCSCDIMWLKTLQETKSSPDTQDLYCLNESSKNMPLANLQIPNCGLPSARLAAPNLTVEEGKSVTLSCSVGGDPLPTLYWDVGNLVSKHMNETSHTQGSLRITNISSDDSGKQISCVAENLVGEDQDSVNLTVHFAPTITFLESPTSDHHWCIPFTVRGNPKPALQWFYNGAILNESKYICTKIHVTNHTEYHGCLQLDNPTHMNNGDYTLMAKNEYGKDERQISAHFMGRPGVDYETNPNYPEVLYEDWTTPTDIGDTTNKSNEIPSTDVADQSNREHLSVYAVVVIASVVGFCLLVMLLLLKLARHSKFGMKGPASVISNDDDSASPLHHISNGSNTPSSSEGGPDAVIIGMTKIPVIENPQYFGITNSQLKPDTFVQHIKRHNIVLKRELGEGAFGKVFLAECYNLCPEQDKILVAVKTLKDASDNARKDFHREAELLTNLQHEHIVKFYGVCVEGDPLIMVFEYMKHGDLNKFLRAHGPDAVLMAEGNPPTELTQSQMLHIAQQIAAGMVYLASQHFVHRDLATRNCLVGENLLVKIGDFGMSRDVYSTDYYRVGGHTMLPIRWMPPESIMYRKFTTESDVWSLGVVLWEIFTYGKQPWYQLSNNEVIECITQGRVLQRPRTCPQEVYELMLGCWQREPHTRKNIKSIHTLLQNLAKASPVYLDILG

SMILES: CC(=O)O[C@@H]1C[C@H]2C(C)(C)C(=O)C=C[C@]2(C)[C@H]2CC[C@]3(C)C(=CC(=O)O[C@H]3c3ccoc3)[C@@]21C [deoxygedunin]
- protective effect (apoptosis inhibitory activity) (hippocampal neurons [1]): most robust protective effect
- Kd ([2]; Scatchard plot analysis, read-out: binding constant Kd): 1400 nM
- major binding site in TrkB ECD (truncation assays) ([2]; TrkB ECD truncation mutants): Ig2 domain
- protective effects on hippocampal neurons under OGD (hippocampal neurons [3]; apoptotic ratio compared to BDNF and DMSO): potent protective effects
- titration assay under OGD (hippocampal neurons [3]; dose titration): protects neurons in a dose-dependent manner
- TrkB activation (TrkB): TrkB activation occurred in both wild-type and BDNF −/− mice
